Like-named read-outs stand apart in the source and are kept apart here. No end group written: not given here. Some results are limits rather than exact numbers.

The record followed here is patent US7029857B1, “Processes for obtaining compounds employing SNORF72 receptors” (H. Lundbeck A/S, priority 1999, dated 2006).

For experiment [1], the target named is T1, SNORF72 (Homo sapiens, UniProt Q9GZQ4, A395T).
T1 construct: expressed in transfected cells; host or cells: COS-7 (transient, DEAE-dextran)
Put plainly: Intracellular Ca2+ release (FLIPR) in SNORF72-transfected COS-7 cells. Format: cell-based. The conditions noted are these: SNORF72, data not shown. Here is the method:
(§1) A typical protocol for the DEAE-dextran method as applied to COS-7 and HEK293 cells is described as follows. Cells to be used for transfection are split 24 hours prior to the transfection to provide flasks which are 70–80% confluent at the time of transfection. Briefly, 8 μg of receptor DNA plus 8 μg of any additional DNA needed (e.g. Gα protein expression vector, reporter construct, antibiotic resistance marker, mock vector, etc.) are added to 9 ml of complete DMEM plus DEAE-dextran mixture (10 mg/ml in PBS). Cells plated into a T225 flask (sub-confluent) are washed once with PBS and the DNA mixture is added to each flask. The cells are allowed to incubate for 30 minutes at 37° C., 5% CO2. Following the incubation, 36 ml of complete DMEM with 80 μM chloroquine is added to each flask and allowed to incubate an additional 3 hours. The medium is then aspirated and 24 ml of complete medium containing 10% DMSO for exactly 2 minutes and then aspirated. The cells are then washed 2 times with PBS and 30 ml of complete DMEM added to each flask. The cells are then allowed to incubate over night. The next day the cells are harvested by trypsinization and reseeded into 96 well plates.
(§2) Cells expressing the receptor of interest are plated into clear, flat-bottom, black-walled 96-well plates (Costar) at a density of 80,000–150,000 cells per well and allowed to incubate for 48 hr at 5% CO2, 37° C. The growth medium is aspirated and 100 μL of loading medium containing Fluo-3 dye is added to each well. The loading medium contains: 20 mM HEPES (Sigma), 0.1% BSA (Sigma), dye/pluronic acid mixture (e.g. 1 mM Fluo-3/AM (Molecular Probes) and 10% pluronic acid (Molecular Probes) mixed immediately before use), and 2.5 mM probenecid (Sigma)(prepared fresh). The cells are allowed to incubate for about 1 hour at 5% CO2, 37° C.
(§3) The compounds of interest are diluted in wash buffer (Hank's BSS (without phenol red), 20 mM HEPES, 2.5 mM probenecid) to a 4× final concentration and aliquoted into a clear v-bottom plate (Nunc). Following the dye incubation, the cells are washed 4 times to remove excess dye using a Denley plate washer. 100 μL final volume of wash buffer is then added to each cell well. Compounds are added to the cell plates and responses are measured using the FLIPR™ instrument. The data are then collected and analyzed using the FLIPR™ software and Graphpad Prism.
(§4) COS-7 cells were transiently transfected with SNORF62, SNORF72 or vector DNA (mock) as described in Materials and Methods.

Experiment [2] concerns the target T1, SNORF72. Put plainly: Displacement of [125I]rat NMU-23 binding in SNORF72-transfected COS-7 membranes. The following applies: for displacement of [125I]rat NMU-23 binding: SNORF72 membranes. Here is the method: (§5) The specifics of preparing such cell membranes may in some cases be determined by the nature of the ensuing assay but typically involve harvesting whole cells and disrupting the cell pellet by sonication in ice cold buffer (e.g. 20 mM Tris HCl, mM EDTA, pH 7.4 at 4° C.). The resulting crude cell lysate is cleared of cell debris by low speed centrifugation at 200×g for 5 min at 4° C. The cleared supernatant is then centrifuged at 40,000×g for 20 min at 4° C., and the resulting membrane pellet is washed by suspending in ice cold buffer and repeating the high speed centrifugation step. The final washed membrane pellet is resuspended in assay buffer. Protein concentrations are determined by the method of Bradford (1976) using bovine serum albumin as a standard. The membranes may be used immediately or frozen for later use.
(§6) Radioligand binding assays were performed by diluting membranes prepared from cells expressing the receptor in 50 mM Tris buffer (pH=7.4 at 0° C.) containing 0.1% bovine serum albumin (Sigma), aprotinin (0.005 mg/ml, Boehringer Mannheim) and bestatin (0.1 mM, Sigma) as protease inhibitors. The final protein concentration in the assay was 12–40 μg/ml. […] The bound ligand was separated from free by filtration through GF/B filters presoaked in 0.5% polyethyleneimine (PEI), using a Tomtec (Wallac) vacuum filtration device. After addition of Ready Safe (Beckman) scintillation fluid, bound radioactivity was quantitated using a Trilux (Wallac) scintillation counter (approximately 40% counting efficiency of bound counts). Data was fit to non-linear curves using GraphPad Prism.
(§7) In this manner, agonist or antagonist compounds that bind to the receptor may be identified as they inhibit the binding of the labeled ligand to the membrane protein of cells expressing the said receptor. Non-specific binding was defined as the amount of radioactivity remaining after incubation of membrane protein in the presence of 100 nM of the unlabeled peptide corresponding to the radioligand used. In equilibrium saturation binding assays membrane preparations or intact cells transfected with the receptor are incubated in the presence of increasing concentrations of the labeled compound to determine the binding affinity of the labeled ligand.
In general terms: Loss of bound radioactivity is the signal in a displacement assay; it reports binding, not function.

Experiment [3] concerns the target T2, SNORF62 (Homo sapiens, UniProt Q9HB89).
T2 sequence (Q9HB89 1-426): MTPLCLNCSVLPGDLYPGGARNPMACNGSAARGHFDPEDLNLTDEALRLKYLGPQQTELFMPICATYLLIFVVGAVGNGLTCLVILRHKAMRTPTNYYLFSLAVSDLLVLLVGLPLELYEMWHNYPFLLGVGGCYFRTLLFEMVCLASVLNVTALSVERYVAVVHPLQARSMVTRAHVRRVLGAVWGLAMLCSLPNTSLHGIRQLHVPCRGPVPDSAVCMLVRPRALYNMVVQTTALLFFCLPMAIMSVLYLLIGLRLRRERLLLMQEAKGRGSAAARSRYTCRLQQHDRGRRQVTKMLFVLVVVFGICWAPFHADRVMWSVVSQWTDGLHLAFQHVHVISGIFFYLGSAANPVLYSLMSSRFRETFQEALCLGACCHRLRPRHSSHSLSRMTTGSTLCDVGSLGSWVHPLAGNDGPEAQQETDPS
Put plainly: Intracellular Ca2+ release (FLIPR) in SNORF62-transfected COS-7 cells. The conditions noted are these: SNORF62, data not shown. Set-up: The SNORF62 cDNA codes for a protein of 426 amino acids; expressed in transfected cells; host or cells: COS-7 (transient, DEAE-dextran). Format: cell-based. The method, then: as §1, §2, §3, §4

The target of experiment [4] is T2, SNORF62. Put plainly: Displacement of [125I]rat NMU-23 binding in SNORF62-transfected COS-7 membranes. Set-up: The SNORF62 cDNA codes for a protein of 426 amino acids; expressed in transfected cells; host or cells: COS-7 (transient, DEAE-dextran). The conditions noted are these: for displacement of [125I]rat NMU-23 binding: SNORF62 membranes. The method, then:
as §5, §6, §7

Experiment [5] concerns the target T3, human SNORF62 receptor (human, UniProt Q9HB89 1-426).
T3 sequence: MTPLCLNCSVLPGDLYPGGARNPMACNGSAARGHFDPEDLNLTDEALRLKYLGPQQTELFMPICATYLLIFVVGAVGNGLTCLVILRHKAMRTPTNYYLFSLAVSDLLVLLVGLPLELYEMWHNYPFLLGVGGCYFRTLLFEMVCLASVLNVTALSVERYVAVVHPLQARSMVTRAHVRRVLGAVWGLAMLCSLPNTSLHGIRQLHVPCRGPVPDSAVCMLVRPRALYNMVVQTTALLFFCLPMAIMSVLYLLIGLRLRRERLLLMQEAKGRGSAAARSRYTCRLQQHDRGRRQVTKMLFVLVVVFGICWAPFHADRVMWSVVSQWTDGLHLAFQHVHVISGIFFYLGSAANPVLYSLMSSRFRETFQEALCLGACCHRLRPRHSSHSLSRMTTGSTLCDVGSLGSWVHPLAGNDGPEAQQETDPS
Put plainly: displacement of [125I]rat NMU-23, membranes of SNORF62-transfected COS-7 cells. Here is the method:
as §6, with “µg/ml.” for “μg/ml.”

The target in experiment [6] is T4, human SNORF72 receptor (human, UniProt Q9GZQ4 1-415). Kind of experiment: displacement of [125I]rat NMU-23, membranes of SNORF72-transfected COS-7 cells. The method, then: as §6, with “µg/ml.” for “μg/ml.”
The target in experiment [7] is T3, human SNORF62 receptor. Kind of experiment: displacement of [125I]rat NMU-23 (0.05-0.1 nM), membranes of SNORF62-transfected COS-7 cells, n=2. Here is the method:
as §6, with “µg/ml.” for “μg/ml.”

Experiment [8] concerns the target T4, human SNORF72 receptor. Put plainly: displacement of [125I]rat NMU-23 (0.05-0.1 nM), membranes of SNORF72-transfected COS-7 cells, n=2. The method, then: as §6, with “µg/ml.” for “μg/ml.”

T4 sequence (Q9GZQ4 other isoform, or with tags, fused parts or gaps): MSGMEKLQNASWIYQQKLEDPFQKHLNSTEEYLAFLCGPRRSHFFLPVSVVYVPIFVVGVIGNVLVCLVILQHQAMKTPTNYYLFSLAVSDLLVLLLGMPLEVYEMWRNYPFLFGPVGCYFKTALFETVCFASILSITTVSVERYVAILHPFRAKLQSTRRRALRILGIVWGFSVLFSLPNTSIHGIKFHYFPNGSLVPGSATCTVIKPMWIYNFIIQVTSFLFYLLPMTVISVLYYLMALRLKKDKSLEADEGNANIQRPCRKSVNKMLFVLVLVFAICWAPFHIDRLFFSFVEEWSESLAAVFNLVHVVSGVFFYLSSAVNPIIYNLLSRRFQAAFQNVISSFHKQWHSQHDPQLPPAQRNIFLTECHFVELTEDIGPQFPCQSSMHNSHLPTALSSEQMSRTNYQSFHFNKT
T1 sequence (Q9GZQ4 whole entry A395T): as the sequence (Q9GZQ4 other isoform, or with tags, fused parts or gaps) above

For the molecule `CC[C@H](C)[C@H](NC(=O)[C@H](CO)NC(=O)[C@H](CC(N)=O)NC(=O)[C@H](CC(C)C)NC(=O)[C@H](Cc1ccc(O)cc1)NC(=O)[C@H](CCCCN)NC(=O)[C@H](CCCCN)NC(=O)[C@@H](NC(=O)[C@H](C)NC(=O)[C@H](CCSC)NC(=O)[C@H](CCC(N)=O)NC(=O)[C@H](CCCCN)NC(=O)[C@H](CCCNC(=N)N)NC(=O)[C@H](CC(C)C)NC(=O)[C@H](CCCNC(=N)N)NC(=O)[C@@H](NC(=O)[C@H](Cc1ccc(O)cc1)NC(=O)[C@H](CC(N)=O)NC(=O)[C@H](CC(=O)O)NC(=O)[C@@H](NC(=O)[C@H](Cc1ccccc1)NC(=O)[C@@H](NC(=O)[C@H](C)NC(=O)[C@H](CC(=O)O)NC(=O)[C@H](CO)NC(=O)[C@@H](N)Cc1c[nH]cn1)C(C)C)[C@@H](C)O)[C@@H](C)O)C(C)C)C(=O)N[C@@H](CC(C)C)C(=O)N[C@@H](CC(N)=O)C(N)=O` [VIP], the “activate the receptors in transfected COS-7 cells” value (“activate the receptors” for short) in experiment [1] and in experiment [3] was “did not” in each case. Moreover, the “displacement of [125I]rat NMU-23 binding” value in experiment [2] and in experiment [4] was “did not displace binding” throughout.

As to `CC[C@H](C)[C@H](NC(=O)[C@H](Cc1ccc(O)cc1)NC(=O)[C@H](CCCNC(=N)N)NC(=O)[C@H](CCCNC(=N)N)NC(=O)[C@H](CC(C)C)NC(=O)[C@H](CCC(N)=O)NC(=O)[C@@H](NC(=O)[C@H](CCC(=O)O)NC(=O)[C@H](Cc1ccc(O)cc1)NC(=O)[C@H](CCC(N)=O)NC(=O)[C@H](C)NC(=O)[C@H](CCCNC(=N)N)NC(=O)[C@H](CCC(N)=O)NC(=O)[C@H](CCC(=O)O)NC(=O)[C@H](Cc1c[nH]cn1)NC(=O)[C@@H](NC(=O)[C@H](C)NC(=O)[C@H](Cc1ccc(O)cc1)NC(=O)[C@H](CC(=O)O)NC(=O)CNC(=O)[C@@H]1CCCN1C(=O)[C@H](Cc1ccc(O)cc1)NC(=O)[C@H](CCSC)NC(=O)[C@@H]1CCCN1C(=O)[C@H](CCC(=O)O)NC(=O)[C@H](CC(C)C)NC(=O)[C@@H]1CCCN1C(=O)[C@H](C)N)[C@@H](C)O)[C@@H](C)O)C(=O)N[C@@H](CC(N)=O)C(=O)N[C@H](C(=O)N[C@@H](CC(C)C)C(=O)N[C@H](C(=O)N[C@@H](CCCNC(=N)N)C(=O)N1CCC[C@H]1C(=O)N[C@@H](CCCNC(=N)N)C(=O)N[C@@H](Cc1ccc(O)cc1)C(N)=O)[C@@H](C)O)[C@@H](C)O` [rat PP], the “activate the receptors” value in experiment [1] and in experiment [3] was “did not” throughout. In addition, the “displacement of [125I]rat NMU-23 binding” value in experiment [2] and in experiment [4] was “did not displace binding” in each case. For the same molecule, the Ki in experiment [2] (binding affinity, SNORF72-transfected COS-7 cells, unit printed in cell (Table 1A), read-out: SNORF72 Avg Ki) was more than 10 µM; in experiment [2] (displacement of [125I]rat NMU-23 (0.05-0.1 nM), n = 2 (Table 2), read-out: SNORF72 Avg pKi (converted)), more than 10 µM; in experiment [4] (binding affinity, SNORF62-transfected COS-7 cells, unit printed in cell (Table 1A), read-out: SNORF62 Avg Ki), more than 10 µM; in experiment [4] (displacement of [125I]rat NMU-23 (0.05-0.1 nM), n = 2 (Table 2), read-out: SNORF62 Avg pKi (converted)), more than 10 µM.

For the molecule “APSEPHHPGDQATQDQLAQYYSDLYQYITFVTRPRF-NH2 (C-terminus assumed) [frog PP]”, the “activate the receptors” value in experiment [1] and in experiment [3] was “did not” each time. Besides, the “displacement of [125I]rat NMU-23 binding” value in experiment [2] and in experiment [4] was “did not displace binding” throughout.

As usually defined, the pKi is the negative decadic logarithm of the Ki, by convention in mol/L. Low readings indicate a large Ki, high ones a small Ki. Consider frog PP (peptide), for which the Ki in experiment [5] and in experiment [6] was more than 10 µM each time. The pKi in experiment [7] and in experiment [8] was less than 5 each time.

B1: rat PP (peptide, UniProt P06303 30-65, looked up)
peptide: APLEPMYPGDYATHEQRAQYETQLRRYINTLTRPRY
notes: also called rat pancreatic polypeptide
As to B1, the Ki in experiment [5] and in experiment [6] was more than 10 µM in each case. In addition, the pKi in experiment [7] and in experiment [8] was less than 5 in each case.

B2: vasoactive intestinal peptide (peptide, UniProt P01282 125-152, looked up, species assumed)
Vasoactive intestinal peptide: HSDAVFTDNYTRLRKQMAVKKYLNSILN-NH2
modifications: ends and bridges not checked
In the case of B2, the Ki in experiment [5] and in experiment [6] was more than 10 µM each time. For the same molecule, the pKi in experiment [7] and in experiment [8] was less than 5 throughout.
